These results are taken from PubChem BioAssay (NCI).

Among the test systems are A549 NSCLC; CAKI-1 renal; HL-60(TB) leukemia; HT29 colon; LOX IMVI melanoma; M14 melanoma; MALME-3M melanoma; MCF7 breast; MDA-MB-231 breast; MDA-N; NCI-H23 lung; NCI-H522 lung; OVCAR-8 ovarian; RXF 393 renal; SF-539 CNS; SR leukemia; U251 CNS; UACC-257 melanoma; RPMI-8226 leukemia.
Common to all, as to assay: inhibition of tumour cell growth, NCI panel, 48 h

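How tested: cells in 96-well plates exposed to compound for 48 hours at five concentrations. TGI denotes the concentration required for complete inhibition of growth.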

For `COc1cc(/C=C\c2nnc(/C=C\c3ccc(O)c(OC)c3)s2)ccc1O`, the TGI in the experiment on A549 NSCLC is over 54.7 µM; with CAKI-1 renal, 44.2 µM; in the experiment with HL-60(TB) leukemia, 5.45 µM; in the experiment on HT29 colon, 23.4 µM; in the experiment on LOX IMVI melanoma, 22.4 µM; in the experiment on M14 melanoma, 9.58 µM. Moreover, the TGI is 24 µM with MALME-3M melanoma; 11.3 µM in the experiment on MCF7 breast; over 57.5 µM in the experiment on MDA-MB-231 breast; 16.4 µM with MDA-N; 12.2 µM in the experiment on NCI-H23 lung; 5.57 µM in the experiment on NCI-H522 lung. For the same compound, the TGI with OVCAR-8 ovarian was over 42.9 µM; in the experiment with RXF 393 renal it was 4.75 µM; in the experiment with SF-539 CNS, over 26.4 µM; in the experiment with SR leukemia it was 7.37 µM; in the experiment with U251 CNS, 17.1 µM; with UACC-257 melanoma, over 30.7 µM.

`Cc1ccc(OCC2OC(n3cnc4c(Cl)nc(Cl)nc43)CC2Oc2ccc(C)cc2)cc1` (stereo not given): the TGI with A549 NSCLC came out at 11.9 µM; in the experiment with CAKI-1 renal, 2.96 µM; in the experiment on HL-60(TB) leukemia it was 6.53 µM; in the experiment with HT29 colon, 2.91 µM; in the experiment on LOX IMVI melanoma, 3.61 µM; in the experiment on M14 melanoma, 3.99 µM. Also, the TGI came out at 5.13 µM in the experiment on MALME-3M melanoma; 4.01 µM in the experiment on MCF7 breast; 3.99 µM in the experiment with MDA-MB-231 breast; 3.84 µM with MDA-N; 3.91 µM in the experiment with NCI-H23 lung; 3.82 µM in the experiment with NCI-H522 lung. Besides, the TGI in the experiment with OVCAR-8 ovarian came to 5.39 µM; with SF-539 CNS, 4.04 µM; in the experiment with SR leukemia it was 5.17 µM; in the experiment with U251 CNS, 4.91 µM; in the experiment on UACC-257 melanoma, 6.59 µM.

For `O=C(NNC(=S)NCc1ccccc1)c1csc(NC(=S)NC2CCCCC2)n1`, the TGI in the experiment on A549 NSCLC is over 100 µM; in the experiment with CAKI-1 renal, over 100 µM; in the experiment on HL-60(TB) leukemia, over 100 µM; in the experiment on HT29 colon it was 12.1 µM; with LOX IMVI melanoma, over 100 µM; in the experiment with M14 melanoma, over 100 µM. In addition, the TGI was over 100 µM in the experiment with MALME-3M melanoma; over 100 µM in the experiment on MCF7 breast; 83.3 µM with MDA-MB-231 breast; 73.2 µM in the experiment with MDA-N; over 100 µM in the experiment on NCI-H23 lung; over 100 µM with NCI-H522 lung. The TGI is over 100 µM in the experiment with OVCAR-8 ovarian; 58.2 µM with RPMI-8226 leukemia; over 100 µM in the experiment with SF-539 CNS; over 100 µM in the experiment with SR leukemia; over 100 µM in the experiment on U251 CNS; 43 µM in the experiment with UACC-257 melanoma.

In the case of `CC(=O)OCC(C)(COC(C)=O)N1C(=O)C2C3c4ccccc4C(c4ccccc43)C2C1=O` (stereo not given), the TGI with A549 NSCLC, in the experiment on CAKI-1 renal, in the experiment on HL-60(TB) leukemia, in the experiment with HT29 colon, in the experiment on LOX IMVI melanoma and with M14 melanoma was over 100 µM throughout. Also, the TGI in the experiment on MCF7 breast, with MDA-MB-231 breast, in the experiment with MDA-N, in the experiment on NCI-H23 lung, with OVCAR-8 ovarian and in the experiment with RPMI-8226 leukemia was over 100 µM each time. The TGI with RXF 393 renal, in the experiment on SF-539 CNS, in the experiment with SR leukemia, in the experiment with U251 CNS and with UACC-257 melanoma was over 100 µM throughout.

Turning to `O=C1OC(C2(O)OC(=O)c3ccccc32)c2ccccc21` (stereo not given), the TGI with A549 NSCLC, in the experiment with CAKI-1 renal, with HL-60(TB) leukemia, with HT29 colon, with LOX IMVI melanoma and in the experiment with M14 melanoma was over 100 µM each time. The TGI in the experiment on MCF7 breast, with MDA-MB-231 breast, in the experiment with MDA-N, in the experiment with NCI-H23 lung, with NCI-H522 lung and in the experiment on OVCAR-8 ovarian was over 100 µM in each case. The TGI with RPMI-8226 leukemia, in the experiment on RXF 393 renal, with SF-539 CNS, in the experiment on SR leukemia, in the experiment on U251 CNS and in the experiment with UACC-257 melanoma was over 100 µM throughout.

With `O=C1c2ccccc2C2C1C(c1ccccc1)C1(Cc3ccccc3C1=O)C2c1ccccc1` (stereo not given), the TGI in the experiment on A549 NSCLC was over 100 µM; in the experiment with HL-60(TB) leukemia, 35.6 µM; in the experiment on HT29 colon it was over 100 µM; in the experiment with LOX IMVI melanoma, over 100 µM; in the experiment on M14 melanoma it was over 100 µM; with MALME-3M melanoma it was over 100 µM. The TGI in the experiment with MCF7 breast, in the experiment on MDA-MB-231 breast, in the experiment with MDA-N, with NCI-H23 lung, in the experiment with NCI-H522 lung and with OVCAR-8 ovarian was over 100 µM each time. In addition, the TGI in the experiment with RXF 393 renal, in the experiment on SF-539 CNS, with SR leukemia, in the experiment on U251 CNS and in the experiment with UACC-257 melanoma was over 100 µM in each case.

Consider `COc1ccc(NC(C)=O)c(C(O)CCNC(C)=O)c1` (stereo not given), for which the TGI in the experiment on A549 NSCLC, with CAKI-1 renal, with HL-60(TB) leukemia, in the experiment with HT29 colon, in the experiment on LOX IMVI melanoma and with M14 melanoma was over 100 µM each time. In addition, the TGI in the experiment with MCF7 breast, with MDA-MB-231 breast, in the experiment with MDA-N, with NCI-H23 lung, with NCI-H522 lung and in the experiment with OVCAR-8 ovarian was over 100 µM throughout. For the same compound, the TGI with RPMI-8226 leukemia, with RXF 393 renal, in the experiment with SF-539 CNS, in the experiment on SR leukemia, in the experiment with U251 CNS and in the experiment on UACC-257 melanoma was over 100 µM in each case.

Turning to `COc1ccc(C2=C(N)c3ncccc3C2=O)cc1`, the TGI in the experiment on CAKI-1 renal, in the experiment with HL-60(TB) leukemia, in the experiment on HT29 colon, in the experiment with LOX IMVI melanoma, in the experiment on M14 melanoma and with MALME-3M melanoma was over 100 µM throughout. Also, the TGI in the experiment on MCF7 breast, in the experiment on MDA-MB-231 breast, with MDA-N, in the experiment on NCI-H23 lung, in the experiment with OVCAR-8 ovarian and in the experiment on RPMI-8226 leukemia was over 100 µM in each case. The TGI in the experiment on RXF 393 renal was over 100 µM; in the experiment on SF-539 CNS it was over 100 µM; with SR leukemia, over 100 µM; in the experiment on U251 CNS, over 100 µM; in the experiment on UACC-257 melanoma, over 10 µM.
